# Earlier results as cited in patent US5756508A, “Muscarine antagonists” (Merck & Co., Inc., priority 1996, dated 1998).
# How the values were obtained:
# [1] = tested on: smooth muscle (ordinarily called m3 type); conditions: background statement
# [2] = tested on: axial elongation of the eye; conditions: background statement
# pupil; ciliary muscle = conditions: background statement
# [3] = tested on: muscarinic receptors (antimuscarinic); conditions: background statement
# [4] = background statement
SMILES,selectivity for smooth muscle (m3 type) receptors [1],inhibition of axial elongation / enlargement of the eye [2],impairment of ocular focusing / near visual work (pupil; ciliary muscle),pupil dilation (mydriasis) (pupil; ciliary muscle),antimuscarinic action / specificity [3],sensitization [4]
"C[N+]1(C)CCC(OC(=O)C(c2ccccc2)c2ccccc2)CC1 [Example 4-DAMP, 4-diphenylacetoxy-N-methylpiperadine methiodide]",relatively selective antagonist for smooth muscle,–,–,–,–,–
CN1CCc2cccc3c2[C@H]1Cc1ccc(O)c(O)c1-3 [apomorphine],–,found to inhibit or actually prevent the axial enlargement of the eye,–,–,–,–
CN1[C@@H]2CC[C@H]1C[C@@H](OC(=O)C(CO)c1ccccc1)C2 (stereo partly drawn) [atropine],–,–,impairs near visual work like reading,causes mydriasis (increase of pupil size),long-acting non-specific antimuscarinic agent,test positive in sensitization assays
CN1CCN(CC(=O)N2c3ccccc3C(=O)Nc3cccnc32)CC1 [pirenzepine],–,inhibits axial elongation,–,far less effective at pupil dilation than atropine,–,test positive in sensitization assays
